According to publication PMC6272279, “Carboxylated Acyclonucleosides: Synthesis and RNase A Inhibition” (Molecules, 2015):

Assays:
RNase A [1] = biological target: T1, RNase A (Bos taurus, UniProt P61823); assay: Comparative agarose gel-based assay of RNA degradation by RNase A; assay type: biochemical, Bovine; details: inhibitor 0.5 mM, RNase A 1 µM, RNA 10 mg/mL
T1 construct: purchased
T1 sequence (P61823 27-150): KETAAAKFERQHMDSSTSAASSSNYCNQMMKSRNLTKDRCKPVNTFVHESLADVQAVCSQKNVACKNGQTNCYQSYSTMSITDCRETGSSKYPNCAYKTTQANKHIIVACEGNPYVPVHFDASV
Experimental: Qualitative indication of RNase A inhibition by the synthetic inhibitors was obtained from a comparative agarose gel-based assay by monitoring the degradation of RNA by RNase A (Figure 2 and Figure 3). The most intense band observed in lane I in each gel is due to the presence of only RNA. […] These experimental observations reaffirmed our assumption that increasing the acidity of the molecules leads to an increase in the inhibitory property of the inhibitor.
Inhibition of RNase A was assayed qualitatively by the degradation of RNA in an agarose gel. In this method, 20 μL of RNase A (1 μM) was mixed with 20 μL (0.5 mM) of compounds U-ol-ol (5), C-ol-ol (16), U-acid (3), C-acid (14), U-ol-acid (8), C-ol-acid (18), U-di-acid (10), and C-di-acid (21) separately to a final volume of 50 μL and the resulting solutions incubated for 3 h. Twenty-microliter aliquots of the incubated mixtures were then mixed with 20 μL of RNA solution (10.0 mg/mL RNA, freshly dissolved in RNase free water) and incubated for another 30 min. Then 10 μL of sample buffer (containing 10% glycerol and 0.025% bromophenol blue) were added to this mixture and 15 μL from each solution were extracted and loaded onto a 1.1% agarose gel. The gel was run using a 0.04-M Tris-Acetic acid-EDTA (TAE) buffer (pH 8.0). The residual RNA was visualized by ethidium bromide staining under UV light.

RNase A [2] = biological target: T1, RNase A; assay: Inhibition kinetics with RNase A (UV, 2',3'-cCMP substrate, Lineweaver–Burk plot); assay type: biochemical, Bovine; details: 0.1-M Mes-NaOH buffer pH 6.0, 0.1 M NaCl, substrate 2',3'-cCMP; mean ± SD; read-out: Inhibition constant Ki
Experimental: In order to determine the type of inhibition and the inhibition constant (Ki) values, kinetic experiments were performed with compounds U-ol-acid (8), U-di-acid (10), C-ol-acid (18), and C-di-acid (21). The competitive nature of inhibition in all the cases was apparent from the nature of the Lineweaver–Burk plots obtained from the kinetic experiments (Figure 4 and Figure S1 (SI)).
A quantitative account of RNase A inhibition by the individual inhibitors was obtained by a UV spectroscopic method described by Anderson and co-workers. The assay was performed in a 0.1-M Mes-NaOH buffer, pH 6.0 containing 0.1 M NaCl using 2',3'-cCMP as the substrate. The inhibition constants were calculated from initial velocity data using a Lineweaver–Burk plot. The slopes from the Lineweaver–Burk double reciprocal plot were plotted against the corresponding inhibitor concentrations to get inhibition constants (Ki).

RNase A [3] = biological target: T1, RNase A; assay: Circular dichroism of RNase A secondary structure with inhibitor; design: species or system Bovine; details: RNase A 30 µM mixed with inhibitor 30 µM, 3 h; native RNase A 22.7%
Experimental: Inhibitors of RNase A are known to perturb the secondary structure of the enzyme upon binding. […] Therefore, the probable changes in the secondary structure of the enzyme by the inhibitors were monitored by observing the CD spectra of RNase A in the absence or presence of compounds U-di-acid (10) and C-di-acid (21) (Figure 5).
Circular Dichroism (CD) was performed in order to monitor the changes in the secondary structure of the enzyme as a result of interaction with the inhibitors. In this method, 200 µL of RNase A (30 µM) were mixed separately with 200 µL of U-di-acid (10) (30 µM) and C-di-acid (21) (30 µM) and incubated for 3 h. From the resulting solutions, an aliquot of 300 µL was used for CD measurements, taking a 1 mm path length quartz cell. The spectra were recorded in the range of 190–240 nm with a scan rate of 50 nm/min. Three scans were accumulated for each spectrum. The secondary structure was determined using an online server, DICHROWEB [46].

A melting point of over 200 °C was found for Nc1ccn(CC(=O)NCC(=O)O)c(=O)n1 [C-acid (14), [2-(4-Amino-2-oxo-2H-pyrimidin-1-yl)acetylamino] acetic acid] in this work.

With Nc1ccn(CC(=O)N(CCO)CC(=O)O)c(=O)n1 [C-ol-acid (18), [[2-(4-Amino-2-oxo-2H-pyrimidin-1-yl)acetyl]-(2-hydroxyethyl)amino] acetic acid] the “RNase A inhibition, relative band intensities in agarose gel” value (RNase A [1]) was “relatively more potent inhibitors” and the Ki (RNase A [2]) was 356 ± 7 µM.

With O=C(O)CN(CC(=O)O)C(=O)Cn1ccc(=O)[nH]c1=O [U-di-acid (10), {Carboxymethyl-[2-(2,4-dioxo-3,4-dihydro-2H-pyrimidin-1-yl)acetyl]amino}acetic acid] the “RNase A inhibition, relative band intensities in agarose gel” value (RNase A [1]) was “relatively more potent inhibitors”, the Ki (RNase A [2]) was 301 ± 15 µM and the “α-helix content of RNase A upon binding” value (RNase A [3]) was 24.7%. It also gave a melting point of 118 to 120 °C.

For Nc1ccn(CC(=O)N(CC(=O)O)CC(=O)O)c(=O)n1 [C-di-acid (21), {[2-(4-Amino-2-oxo-2H-pyrimidin-1-yl)-acetyl]carboxymethylamino}acetic acid], the “RNase A inhibition, relative band intensities in agarose gel” value (RNase A [1]) was “relatively more potent inhibitors”, the Ki (RNase A [2]) was 235 ± 9 µM and the “α-helix content of RNase A upon binding” value (RNase A [3]) was 29.2%. The melting point was 190 to 193 °C.

With O=C(O)CN(CCO)C(=O)Cn1ccc(=O)[nH]c1=O [U-ol-acid (8)] the “RNase A inhibition, relative band intensities in agarose gel” value (RNase A [1]) was “relatively more potent inhibitors”, the Ki (RNase A [2]) was 454 ± 9 µM and the melting point was 177 to 179 °C.
